Values of other authors, collected in article PMC7651685 (Psychopharmacology, 2020).
Structures can show the parent of a compound that is named as a salt.

Assays:
DAT = test system: DAT; design: method as in Hasenhuetl et al. [2015]; conditions: ref Hasenhuetl et al. [2015]; cited from earlier work
P-gp = conditions: LLC-PK1 cell monolayers and Xenopus Laevis Oocytes; Data-on-file; ref Sunovion Reports #531, 544, 575; cited from earlier work
[1] = test system: efflux transporters of the ATP binding cassette (ABC) superfamily; conditions: LLC-PK1 cell monolayers and Xenopus Laevis Oocytes; Data-on-file; ref Sunovion Reports #531, 544, 575; cited from earlier work
[2] = test system: solute carrier (SLC) and organic anion transporters (OAT); conditions: LLC-PK1 cell monolayers and Xenopus Laevis Oocytes; Data-on-file; ref Sunovion Reports #531, 544, 575; cited from earlier work

For COC(=O)C(c1ccccc1)C1CCCCN1 (racemic) [MPH, (±)-Methyl α-Phenyl-α-(2-piperidyl)acetate hydrochloride, reference compound], the “Association rate (kon) to DAT” value (DAT) is listed as 830000 M⁻¹ s⁻¹.

For N[C@@H]1CC[C@@H](c2ccc(Cl)c(Cl)c2)c2ccccc21 [DAS, (1R,4S)-4-(3,4-dichlorophenyl)-1,2,3,4-tetra-hydronaphthalen-1-amine], the “Substrate for P-gp” value (P-gp) is listed as “not a substrate”, the “Substrate for other efflux transporters of the ABC superfamily” value [1] is listed as “not a substrate” and the “Active uptake by SLC and OAT transporters” value [2] is listed as “not actively taken up”.
